According to PMC12713470, “Design and Synthesis of Novel Chalcone Derivatives Targeting Bladder and Liver Cancer: Cytotoxicity Evaluation and Preliminary Mechanistic Studies” (ACS Omega, 2025):
Where two headings read alike, the source gives them in different places.

Key:
[1] = test system: TOV-21G: human ovarian adenocarcinoma cells; experiment: MTT cytotoxicity assay on TOV-21G cells; assay type: cell-based; conditions: for IC50: Homo sapiens, TOV21G, MTT, 72 h incubation, n = 3, NA: noncytotoxic at the concentrations tested; for SI (TOV-21G): IC50 MRC-5/IC50 TOV-21G
Protocol: (§1) Cytotoxicity was determined using the MTT colorimetric assay, and half-maximal inhibitory concentrations (IC50, μM) were obtained for all cell lines (Table ). The selectivity index (SI) was calculated as the ratio of IC50 MRC-5/IC50 cancer cell line. Doxorubicin was employed as a positive control due to its broad-spectrum clinical use, either alone or in combination, against hepatocellular, ovarian, cervical, and bladder cancers. −
(§2) In vitro biological assays were performed by using five human cell lines for cytotoxicity evaluation. HepG2 cells (ATCC HB-8065), derived from a human hepatocellular carcinoma of the liver (person), were cultured in Dulbecco’s modified Eagle medium (DMEM) supplemented with 5% fetal bovine serum (FBS), penicillin/streptomycin (100 IU/mL), and amphotericin B (5 μg/mL), in a humidified incubator with 5% CO2 at 37 °C. These cells were plated at a concentration of 2.0 × 10^4 cells/well in 96-well microplates. MRC-5 cells (ATCC CCL-171), derived from human lung fibroblasts of a […] fetus, were cultured under the same conditions and plated at 1.0 × 10^4 cells/well. T24 cells (ATCC HTB-4), established from a transitional cell carcinoma of the bladder (person), were also cultured under identical conditions and plated at a density of 1.0 × 10^4 cells/well. TOV-21G cells (ATCC CRL-11730), derived from a primary malignant ovarian adenocarcinoma (person), were maintained in DMEM with the same supplementation and environmental conditions and plated at 5.0 × 10^4 cells/well. […]
(§3) HeLa, HepG2, MRC-5, T24, and TOV-21G cells were suspended in a culture medium supplemented with 5% fetal bovine serum (FBS) and seeded into 96-well microplates. The plates were incubated under a humidified atmosphere containing 5% CO2 at 37 °C for 24 h, allowing for adherence and monolayer formation. , Eight serial dilutions of the test samples, previously solubilized in dimethyl sulfoxide (DMSO), were prepared in DMEM supplemented with 1% FBS, covering a concentration range from […], and the results were converted to […]. The volume of DMSO in each well was limited to a final concentration not exceeding 2%. Following monolayer formation, the culture medium was aspirated and replaced with 100 μL of the diluted test samples and 100 μL of DMEM containing 1% FBS. The plates were then incubated under the same atmospheric and temperature conditions.
(§4) Two hours prior to end point reading, 20 μL of MTT [3-(4,5-dimethylthiazol-2-yl)-2,5-diphenyltetrazolium bromide] solution (1.0 mg/mL in sterile phosphate-buffered saline, Sigma-Aldrich) was added to each well. The incubation period following sample addition varied according to the cell line: 24 h for MRC-5, 48 h for T24, and 72 h for HeLa, HepG2, and TOV-21G. After the appropriate incubation, absorbance was measured by using a VICTOR X3 microplate reader (PerkinElmer), and data were processed with WorkOut 2.5 software at a wavelength of 490 nm. Formazan formation, resulting from the MTT reduction by metabolically active cells, was used as an indirect measure of cell viability. The percentage of cytotoxicity was calculated using the equation % cytotoxicity = [(A – B)/A] × 100, where A is the optical density (OD4 9 0) of untreated control cells and B is the OD4 9 0 of treated cells.
(§5) Cytotoxicity was expressed as the 50% cytotoxic concentration (CC5 0), representing the concentration of sample required to reduce cell viability by 50% relative to that of the untreated control.

[2] = test system: HeLa: human cervical adenocarcinoma cells; experiment: MTT cytotoxicity assay on HeLa cells; assay type: cell-based; conditions: for IC50: Homo sapiens, HeLa, MTT, 72 h incubation, n = 3, NA: noncytotoxic at the concentrations tested; for SI (HeLa): IC50 MRC-5/IC50 HeLa
Protocol: as §1, §2, §3, §4, §5

[3] = test system: T24: human urinary bladder carcinoma cells; experiment: MTT cytotoxicity assay on T24 cells; assay type: cell-based; conditions: for IC50: Homo sapiens, T-24, MTT, 48 h incubation, n = 3, NA: noncytotoxic at the concentrations tested; for SI (T24): IC50 MRC-5/IC50 T24
Protocol: as §1, §2, §3, §4, §5

[4] = test system: MRC-5: human lung fibroblast cells; experiment: MTT cytotoxicity assay on MRC-5 cells; assay type: cell-based; conditions: MRC5, 24 h incubation, n = 3, ± standard deviation
Protocol: as §1, §2, §3, §4, §5

[5] = test system: HepG2: human liver hepatocellular carcinoma cells; experiment: MTT cytotoxicity assay on HepG2 cells; assay type: cell-based; conditions: for IC50: Homo sapiens, HepG2, MTT, 72 h incubation, n = 3, NA: noncytotoxic at the concentrations tested; for SI (HepG2): IC50 MRC-5/IC50 HepG2
Protocol: as §1, §2, §3, §4, §5

[6] = test system: human hepatocellular carcinoma (HCC) cells; design: method as in Tsai and colleagues; conditions: subtoxic concentrations (5–20 μM); ref Tsai and colleagues; cited from earlier work
HepG2 cells = test system: HepG2 cells; design: method as in PMID 37944413; conditions: hit compound, earlier study of the group; cited from earlier work
[7] = test system: HepG2: human liver hepatocellular carcinoma cells; design: method as in PMID 37944413; conditions: hit compound, earlier study of the group; read-out: IC50 HepG2 (earlier work); cited from earlier work

| Structure (SMILES) | IC50 [1] | SI (TOV-21G) [1] | IC50 [2] | SI (HeLa) [2] | IC50 [3] | SI (T24) [3] | IC50 [4] | IC50 [5] | SI (HepG2) [5] | migration and invasion of human hepatocellular carcinoma (HCC) cells [6] | HepG2 cell migration (earlier work) (HepG2 cells) | IC50 [7] | activity against TOV-21G relative to hit 1 ([1]; ratio of IC50 values, 1 vs 2) |
| --- | --- | --- | --- | --- | --- | --- | --- | --- | --- | --- | --- | --- | --- |
| CCCc1cc(/C=C/C(=O)c2ccccc2)c(O)c(OC)c1 [compound 11, (E)-3-(2-Hydroxy-3-methoxy-5-propylphenyl)-1-phenylprop-2-en-1-one] | 11.9 ± 1.5 µM | 0.9 | 2.1 ± 1.1 µM | 5.2 | 9.2 ± 1.2 µM | 1.2 | 11 ± 1.2 µM | 4.6 ± 1.2 µM | 2.3 |  |  |  |  |
| COc1cc([N+](=O)[O-])cc(/C=C/C(=O)c2ccc(C)cc2)c1O [compound 7, (E)-3-(2-Hydroxy-3-methoxy-5-nitrophenyl)-1-(p-tolyl)-prop-2-en-1-one] | 23.8 ± 2.8 µM | 1.1 | 26.6 ± 1.8 µM | 1.0 | 104 ± 1.9 µM | 0.2 | 28.1 ± 1.3 µM | 16.6 ± 1.5 µM | 1.6 |  |  |  |  |
| C=CC(C)(C)c1cc(/C=C/C(=O)c2ccc(O)cc2)c(OC)cc1O [licochalcone A] |  |  |  |  |  |  |  |  |  | effectively inhibited migration and invasion |  |  |  |
| CCCc1cc(/C=C/C(=O)c2ccc(C)cc2)c(O)c(OC)c1 [compound 1] | 7.2 ± 1.3 µM | 6.5 |  |  | > 161 µM | <0.2 | 47.2 ± 1.3 µM | 4.2 ± 1.3 µM | 11.1 |  | inhibiting HepG2 cell migration | 4.25 µM |  |
| CCCc1cc(/C=C/C(=O)c2ccc(C)cc2)c(OC(C)=O)c(OC)c1 [compound 2, (E)-2-Methoxy-6-(3-oxo-3-(p-toluyl)-prop-1-en-1-yl)-4-propylphenyl Acetate] | 1.2 ± 1.1 µM | 13.3 | 3.6 ± 1.3 µM | 4.7 | 59.5 ± 1.5 µM | 0.2 | 16.1 ± 1.5 µM | 4.2 ± 1.2 µM | 3.8 |  |  |  | over six times more active |
| CCCc1cc(OC)c(O)c(C(=O)/C=C/c2ccc(F)cc2)c1 [compound 18, (E)-3-(4-Fluorophenyl)-1-(2-hydroxy-3-methoxy-5-propylphenyl)-prop-2-en-1-one] | 4.8 ± 1.4 µM | 2.3 | 4.1 ± 1.3 µM | 2.8 | 15.4 ± 1.5 µM | 0.7 | 11.5 ± 1.2 µM | 8.3 ± 1.2 µM | 1.3 |  |  |  |  |
| COc1cc(N)cc(/C=C/C(=O)c2ccc(C)cc2)c1O [compound 8, (E)-3-(5-Amino-2-hydroxy-3-methoxyphenyl)-1-(p-tolyl)-prop-2-en-1-one] | 53.1 ± 2.6 µM | 0.7 | 11.5 ± 1.8 µM | 3.5 | 158.6 ± 1.4 µM | 0.2 | 40.9 ± 2 µM |  |  |  |  |  |  |
| COc1cccc2c1C(=O)c1c(O)c3c(c(O)c1C2=O)C[C@@](O)(C(=O)CO)C[C@@H]3O[C@H]1C[C@H](N)[C@H](O)[C@H](C)O1 [doxorubicin, reference compound] | 0.5 µM | 1.3 | 2.9 ± 1.1 µM | 0.2 | 4.4 ± 1.3 µM | 0.1 | 0.6 ± 1.2 µM | 0.06 µM |  |  |  |  |  |
| CCCc1cc(OC)c(O)c(C(=O)/C=C/c2ccccc2)c1 [compound 15, (E)-1-(2-Hydroxy-3-methoxy-5-propylphenyl)-3-phenylprop-2-en-1-one] | 5.4 ± 1.2 µM | 3.3 | 13.7 ± 1.5 µM | 1.3 | 18.4 ± 1.9 µM | 1 | 18.4 ± 1.9 µM | 16.1 ± 1.2 µM | 1.1 |  |  |  |  |
| CCCc1cc(OC)c(O)c(C(=O)/C=C/c2ccc(O)cc2)c1 [compound 17, (E)-1-(2-Hydroxy-3-methoxy-5-propylphenyl)-3-(4-hydroxyphenyl)-prop-2-en-1-one] | 39 ± 1.5 µM | 0.3 | 114 ± 2.1 µM | 0.1 | 36.4 ± 1.5 µM | 0.3 | 12.7 ± 1.4 µM | 19.4 ± 1.4 µM | 0.6 |  |  |  |  |
| CCCc1cc(/C=C/C(=O)c2ccc(C(=O)/C=C/c3cc(CCC)cc(OC)c3O)cc2)c(O)c(OC)c1 [compound 12, (2E,2′E)-1,1′-(1,4-Phenylene)-bis(3-(2-hydroxy-3-methoxy-5-propylphenyl)-prop-2-en-1-one)] | 33.7 ± 2.4 µM | 1.0 | 20.4 ± 1.5 µM | 1.7 | 10.4 ± 1.7 µM | 3.3 | 35 ± 1.5 µM |  |  |  |  |  |  |
| CCCc1cc(/C=C/C(=O)c2ccc(O)cc2)c(O)c(OC)c1 [compound 10, (E)-3-(2-Hydroxy-3-methoxy-5-propylphenyl)-1-(4-hydroxyphenyl)-prop-2-en-1-one] | 7.2 ± 1.2 µM | 0.7 | 17.9 ± 2 µM | 0.2 | 34.9 ± 1.4 µM | 0.1 | 5 ± 1.3 µM | 18.9 ± 1.6 µM | 0.2 |  |  |  |  |
| CCCc1cc(OC)c(O)c(C(=O)/C=C/c2ccc(C)cc2)c1 [compound 16, (E)-1-(2-Hydroxy-3-methoxy-5-propylphenyl)-3-(p-tolyl)-prop-2-en-1-one] | 10.9 ± 1.5 µM | 0.7 | 12.8 ± 1.3 µM | 0.6 | 17.1 ± 2.1 µM | 0.4 | 7.7 ± 1.5 µM | 6.6 ± 1.4 µM | 1.1 |  |  |  |  |
| CCCc1cc(/C=C/C(=O)c2ccc(C)cc2)c(OCc2ccccc2)c(OC)c1 [compound 4, (E)-3-(2-(Benzyloxy)-3-methoxy-5-propylphenyl)-1-(p-toluyl)-prop-2-en-1-one] |  |  |  |  |  |  | 242.4 ± 2.4 µM | 16.9 ± 1.3 µM | 14.3 |  |  |  |  |
